Assay results published in patent US10092584B2 (Achillion Pharmaceuticals, Inc., priority 2015, dated 2018).
pIC50: −log10 of the molar value. Like-named read-outs stand apart in the source and are kept apart here.

Biological target: T1, Human Factor D (Homo sapiens, UniProt P00746)
T1 construct: purified from human serum; purchased Complement Technology, Inc; host or cells: human serum
Assay: Human Factor D assay (Example 8)
Format: biochemical
Procedure: Human Factor D (purified from human serum, Complement Technology, Inc.) at 80 nM final concentration was incubated with test compound at various concentrations for 5 minutes at room temperature in 50 mM Tris, 1M NaCl, pH 7.5. A synthetic substrate Z-L-Lys-SBzl and DTNB (Ellman's reagent) are added to final concentrations of 100 μM each. […] IC50 values are calculated by nonlinear regression of complement Factor D reaction rates as a function of test compound concentration.

[1] = Table 1, Human Factor D 80 nM, substrate Z-L-Lys-SBzl, read-out: IC50

T1 sequence (P00746 26-253): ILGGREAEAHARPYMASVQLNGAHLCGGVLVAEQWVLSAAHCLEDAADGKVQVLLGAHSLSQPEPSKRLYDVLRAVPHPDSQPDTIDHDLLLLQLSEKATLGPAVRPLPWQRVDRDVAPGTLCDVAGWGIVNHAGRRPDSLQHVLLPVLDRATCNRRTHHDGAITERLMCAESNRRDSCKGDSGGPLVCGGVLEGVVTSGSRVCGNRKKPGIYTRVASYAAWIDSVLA

| pIC50 [1] | SMILES | pIC50 |
| --- | --- | --- |
| > 6.00 | NC(=O)c1nn(CC(=O)N2[C@@H]3C[C@@H]3C[C@H]2C(=O)Nc2cccc(-c3ccccc3Cl)c2F)cc1Br [Compound 77, (1R,3S,5R)-2-(2-(4-Bromo-3-carbamoyl-1H-pyrazol-1-yl)acetyl)-N-(2′-chloro-2-fluoro-[1,1′-biphenyl]-3-yl)-2-azabicyclo[3.1.0]hexane-3-carboxamide] |  |
| > 6.00 | NC(=O)c1nn(CC(=O)N2C[C@H](F)C[C@H]2C(=O)Nc2cccc(-c3cc(F)c(F)cc3Cl)c2F)c2cnccc12 [Compound 83, 1-(2-((2S,4R)-2-(2′-chloro-2,4′,5′-trifluorobiphenyl-3-ylcarbamoyl)-4-fluoropyrrolidin-1-yl)-2-oxoethyl)-1H-pyrazolo[3,4-c]pyridine-3-carboxamide] |  |
| > 6.00 | CC(=O)n1cc(CC(=O)N2C[C@H](F)C[C@H]2C(=O)Nc2cccc(-c3ccccc3Cl)c2F)c2ccsc21 [Compound 90, (2S,4R)-1-(2-(6-acetyl-6H-thieno[2,3-b]pyrrol-4-yl)acetyl)-N-(2′-chloro-2-fluorobiphenyl-3-yl)-4-fluoropyrrolidine-2-carboxamide] |  |
| < 5.00 | CC(=O)Nc1cccc2c1c(C(C)=O)cn2CC(=O)N1C[C@H](F)C[C@H]1C(=O)Nc1cccc(-c2ccccc2Cl)c1F [Compound 91, (2S,4R)-1-(2-(4-acetamido-3-acetyl-1H-indol-1-yl)acetyl)-N-(2′-chloro-2-fluorobiphenyl-3-yl)-4-fluoropyrrolidine-2-carboxamide] |  |
| > 6.00 | NC(=O)c1cn(CC(=O)N2C[C@H](F)C[C@H]2C(=O)Nc2cccc(-c3ccccc3Cl)c2F)c2sccc12 [Compound 98, 6-(2-((2S,4R)-2-(2′-chloro-2-fluorobiphenyl-3-ylcarbamoyl)-4-fluoropyrrolidin-1-yl)-2-oxoethyl)-6H-thieno[2,3-b]pyrrole-4-carboxamide] |  |
| > 6.00 | NC(=O)c1nn(CC(=O)N2C[C@H](F)C[C@H]2C(=O)Nc2cccc(-c3ccccc3Cl)c2F)c2ccsc12 [Compound 99, 1-(2-((2S,4R)-2-((2′-Chloro-2-fluoro-[1,1′-biphenyl]-3-yl)carbamoyl)-4-fluoropyrrolidin-1-yl)-2-oxoethyl)-1H-thieno[3,2-c]pyrazole-3-carboxamide] |  |
| > 6.00 | NC(=O)c1nn(CC(=O)N2C[C@H](F)C[C@H]2C(=O)Nc2cccc(-c3c(F)cc(F)cc3Cl)n2)c2cnccc12 [Compound 100, 1-(2-((2S,4R)-2-(6-(2-chloro-4,6-difluorophenyl)pyridin-2-ylcarbamoyl)-4-fluoropyrrolidin-1-yl)-2-oxoethyl)-1H-pyrazolo[3,4-c]pyridine-3-carboxamide] |  |
| > 6.00 | NC(=O)c1nn(CC(=O)N2C[C@H](F)C[C@H]2C(=O)Nc2cccc(-c3c(F)cc(F)cc3Cl)c2)c2cnccc12 [Compound 101, 1-(2-((2S,4R)-2-(2′-chloro-4′,6′-difluorobiphenyl-3-ylcarbamoyl)-4-fluoropyrrolidin-1-yl)-2-oxoethyl)-1H-pyrazolo[3,4-c]pyridine-3-carboxamide] |  |
| > 6.00 | NC(=O)c1cn(CC(=O)N2C[C@H](F)C[C@H]2C(=O)Nc2cccc(-c3ccccc3Cl)c2F)c2ccsc12 [Compound 103, 4-(2-((2S,4R)-2-(2′-chloro-2-fluorobiphenyl-3-ylcarbamoyl)-4-fluoropyrrolidin-1-yl)-2-oxoethyl)-4H-thieno[3,2-b]pyrrole-6-carboxamide] |  |
| > 6.00 | NC(=O)c1nn(CC(=O)N2C[C@H](F)C[C@H]2C(=O)Nc2cccc(-c3ccccc3Cl)c2F)c2c1CCCC2 [Compound 104, 1-(2-((2S,4R)-2-((2′-chloro-2-fluoro-[1,1′-biphenyl]-3-yl)carbamoyl)-4-fluoropyrrolidin-1-yl)-2-oxoethyl)-4,5,6,7-tetrahydro-1H-indazole-3-carboxamide] |  |
| > 6.00 | NC(=O)c1nn(CC(=O)N2C[C@H](F)C[C@H]2C(=O)Nc2cccc(Br)n2)c2ccsc12 [Compound 106, 1-(2-((2S,4R)-2-((6-Bromopyridin-2-yl)carbamoyl)-4-fluoropyrrolidin-1-yl)-2-oxoethyl)-1H-thieno[3,2-c]pyrazole-3-carboxamide] |  |
| > 6.00 | NC(=O)c1nn(CC(=O)N2[C@@H]3C[C@@H]3C[C@H]2C(=O)NCc2cccc(Cl)c2F)c2ccsc12 [Compound 107, 1-(2-((1R,3S,5R)-3-(3-chloro-2-fluorobenzylcarbamoyl)-2-azabicyclo[3.1.0]hexan-2-yl)-2-oxoethyl)-1H-thieno[3,2-c]pyrazole-3-carboxamide] |  |
| < 5.00 | COc1ncc(-c2cn(CC(=O)N3C[C@H](F)C[C@H]3C(=O)Nc3cccc(-c4ccccc4Cl)c3F)nc2C(N)=O)cn1 [Compound 110, 1-(2-((2S,4R)-2-((2′-Chloro-2-fluoro-[1,1′-biphenyl]-3-yl)carbamoyl)-4-fluoropyrrolidin-1-yl)-2-oxoethyl)-4-(2-methoxypyrimidin-5-yl)-1H-pyrazole-3-carboxamide] |  |
| > 6.00 | CC(=O)c1cn(CC(=O)N2C[C@H](F)C[C@H]2C(=O)Nc2cccc(-c3ccccc3Cl)c2F)c2c(-c3cn[nH]c3)cccc12 [Compound 114, (2S,4R)-1-(2-(3-acetyl-7-(1H-pyrazol-4-yl)-1H-indol-1-yl)acetyl)-N-(2′-chloro-2-fluorobiphenyl-3-yl)-4-fluoropyrrolidine-2-carboxamide] |  |

The remaining lines, values behind:

| SMILES | pIC50 [1] | pIC50 |
| --- | --- | --- |
| CC(=O)c1cn(CC(=O)N2C[C@H](F)C[C@H]2C(=O)Nc2cccc(-c3ccccc3Cl)c2F)c2c(C#N)cccc12 [Compound 79, (2S,4R)-1-(2-(3-acetyl-7-cyano-1H-indol-1-yl)acetyl)-N-(2′-chloro-2-fluorobiphenyl-3-yl)-4-fluoropyrrolidine-2-carboxamide] |  | > 6.00 |
| NC(=O)c1nn(CC(=O)N2C[C@H](F)C[C@H]2C(=O)Nc2cccc(-c3cc(F)c(F)cc3Cl)c2F)c2ccccc12 [Compound 80, 1-(2-((2S,4R)-2-((2′-Chloro-2,4′,5′-trifluoro-[1,1′-biphenyl]-3-yl)carbamoyl)-4-fluoropyrrolidin-1-yl)-2-oxoethyl)-1H-indazole-3-carboxamide] |  | > 6.00 |
| CC(=O)c1cn(CC(=O)N2C[C@H](F)C[C@H]2C(=O)Nc2cccc(Br)n2)c2ccc(C3(N4C(=O)c5ccccc5C4=O)CC3)cc12 [Compound 81, (2S,4R)-1-(2-(3-acetyl-5-(1-(1,3-dioxoisoindolin-2-yl)cyclopropyl)-1H-indol-1-yl)acetyl)-N-(6-bromopyridin-2-yl)-4-fluoropyrrolidine-2-carboxamide] |  | > 6.00 |
| CC(=O)c1cn(CC(=O)N2C[C@H](F)C[C@H]2C(=O)Nc2cccc(-c3cc(F)c(F)cc3Cl)c2F)c2ccccc12 [Compound 82, (2S,4R)-1-(2-(3-acetyl-1H-indol-1-yl)acetyl)-N-(2′-chloro-2,4′,5′-trifluorobiphenyl-3-yl)-4-fluoropyrrolidine-2-carboxamide] |  | > 6.00 |
| NC(=O)c1nn(CC(=O)N2C[C@H](F)C[C@H]2C(=O)Nc2cccc(-c3ccc(F)c(F)c3Cl)c2F)c2ccccc12 [Compound 92, 1-(2-((2S,4R)-2-(2′-chloro-2,3′,4′-trifluorobiphenyl-3-ylcarbamoyl)-4-fluoropyrrolidin-1-yl)-2-oxoethyl)-1H-indazole-3-carboxamide] |  | > 6.00 |
| CC(=O)c1cn(CC(=O)N2C[C@H](F)C[C@H]2C(=O)Nc2cccc(-c3ccc(F)c(F)c3Cl)c2F)c2ccccc12 [Compound 93, (2S,4R)-1-(2-(3-acetyl-1H-indol-1-yl)acetyl)-N-(2′-chloro-2,3′,4′-trifluorobiphenyl-3-yl)-4-fluoropyrrolidine-2-carboxamide] |  | > 6.00 |
| NC(=O)c1nn(CC(=O)N2C[C@H](F)C[C@H]2C(=O)Nc2cccc(-c3cc(F)cc(F)c3Cl)c2F)c2ccccc12 [Compound 94, 1-(2-((2S,4R)-2-(2′-chloro-2,3′,5′-trifluorobiphenyl-3-ylcarbamoyl)-4-fluoropyrrolidin-1-yl)-2-oxoethyl)-1H-indazole-3-carboxamide] |  | > 6.00 |
| CC(=O)c1cn(CC(=O)N2C[C@H](F)C[C@H]2C(=O)Nc2cccc(-c3cc(F)cc(F)c3Cl)c2F)c2ccccc12 [Compound 95, (2S,4R)-1-(2-(3-acetyl-1H-indol-1-yl)acetyl)-N-(2′-chloro-2,3′,5′-trifluorobiphenyl-3-yl)-4-fluoropyrrolidine-2-carboxamide] |  | > 6.00 |
| CC(=O)c1cn(CC(=O)N2C[C@H](F)C[C@H]2C(=O)Nc2cccc(-c3ccccc3Cl)c2F)c2cccc(C#N)c12 [Compound 97, (2S,4R)-1-(2-(3-acetyl-4-cyano-1H-indol-1-yl)acetyl)-N-(2′-chloro-2-fluorobiphenyl-3-yl)-4-fluoropyrrolidine-2-carboxamide] |  | > 6.00 |
| N#Cc1cccc2c(C(N)=O)nn(CC(=O)N3C[C@H](F)C[C@H]3C(=O)Nc3cccc(-c4ccccc4Cl)c3F)c12 [Compound 111, 1-(2-((2S,4R)-2-((2′-Chloro-2-fluoro-[1,1′-biphenyl]-3-yl)carbamoyl)-4-fluoropyrrolidin-1-yl)-2-oxoethyl)-7-cyano-1H-indazole-3-carboxamide] |  | > 6.00 |
| CC(=O)c1cn(CC(=O)N2C[C@H](F)C[C@H]2C(=O)Nc2cccc(-c3ccccc3Cl)c2F)c2c(-c3ccc(Cl)nc3)cccc12 [Compound 112, (2S,4R)-1-(2-(3-acetyl-7-(6-chloropyridin-3-yl)-1H-indol-1-yl)acetyl)-N-(2′-chloro-2-fluorobiphenyl-3-yl)-4-fluoropyrrolidine-2-carboxamide] |  | > 6.00 |
| Cc1cc2c(s1)c(C(N)=O)nn2CC(=O)N1C[C@H](F)C[C@H]1C(=O)Nc1cccc(-c2ccccc2Cl)c1F [Compound 113, 1-(2-((2S,4R)-2-((2′-Chloro-2-fluoro-[1,1′-biphenyl]-3-yl)carbamoyl)-4-fluoropyrrolidin-1-yl)-2-oxoethyl)-5-methyl-1H-thieno[3,2-c]pyrazole-3-carboxamide] | > 6.00 |  |
